Source: ChEMBL document CHEMBL1201862, “PubChem BioAssay data set” (2004)
Active and inactive are the calls of the source.

Legend:
[1] = target: T1, Eukaryotic translation initiation factor 2-alpha kinase 3 (Homo sapiens, UniProt Q9NZJ5); assay: Dose response cell-based high-throughput screening assay to measure PERK inhibition. [Related pubchem assays: 1416 ]; assay type: functional
T1 sequence (Q9NZJ5 whole entry): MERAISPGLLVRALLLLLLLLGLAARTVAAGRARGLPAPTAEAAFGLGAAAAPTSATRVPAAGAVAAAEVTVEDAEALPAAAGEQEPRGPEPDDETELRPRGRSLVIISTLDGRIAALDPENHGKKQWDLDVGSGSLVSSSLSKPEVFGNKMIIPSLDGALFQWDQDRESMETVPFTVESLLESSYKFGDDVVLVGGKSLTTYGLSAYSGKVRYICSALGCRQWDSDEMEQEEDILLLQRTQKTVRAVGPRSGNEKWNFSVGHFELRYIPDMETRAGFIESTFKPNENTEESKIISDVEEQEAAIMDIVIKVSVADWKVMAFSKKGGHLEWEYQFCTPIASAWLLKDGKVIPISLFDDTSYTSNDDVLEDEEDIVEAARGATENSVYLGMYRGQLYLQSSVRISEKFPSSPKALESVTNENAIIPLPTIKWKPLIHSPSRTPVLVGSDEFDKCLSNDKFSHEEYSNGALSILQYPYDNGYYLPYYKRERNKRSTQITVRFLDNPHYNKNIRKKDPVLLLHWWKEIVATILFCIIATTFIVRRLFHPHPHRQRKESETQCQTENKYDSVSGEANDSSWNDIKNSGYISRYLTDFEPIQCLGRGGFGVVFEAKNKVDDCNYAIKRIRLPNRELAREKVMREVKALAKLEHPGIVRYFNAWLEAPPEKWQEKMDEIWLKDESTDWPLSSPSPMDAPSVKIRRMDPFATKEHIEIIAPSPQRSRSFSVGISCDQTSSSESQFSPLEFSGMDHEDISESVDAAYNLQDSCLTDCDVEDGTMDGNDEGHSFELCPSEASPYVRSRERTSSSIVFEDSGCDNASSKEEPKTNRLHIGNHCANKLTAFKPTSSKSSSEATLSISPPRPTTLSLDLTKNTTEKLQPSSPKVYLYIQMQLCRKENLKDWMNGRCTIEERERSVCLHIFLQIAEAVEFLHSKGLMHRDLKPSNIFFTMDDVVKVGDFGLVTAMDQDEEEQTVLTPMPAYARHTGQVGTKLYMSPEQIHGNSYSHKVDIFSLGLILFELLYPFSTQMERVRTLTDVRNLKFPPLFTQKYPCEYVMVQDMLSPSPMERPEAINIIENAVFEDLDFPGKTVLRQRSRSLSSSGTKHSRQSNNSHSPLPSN

[2] = target: T1, Eukaryotic translation initiation factor 2-alpha kinase 3; assay: Counterscreen assay for PERK inhibitors: Dose response cell-based high throughput screening assay to measure inhibition of PERK at 6 hours. [Related pubchem assays: 1522, 1416 ]; assay type: functional
HeLa = assay: ATP-based viability loss in HeLa cells – cell-based, CellTiter-Glo luminescence, cherry-pick samples, cytotoxicity control for MITF activator project, dose response (AID 540259); assay type: functional; conditions: Homo sapiens
[3] = Luminescence Cell-Based Dose Response to Identify Activators of Luciferase Translation or Activity in H4-C Neuroglioblastoma Cells. [Related pubchem assays: 1829 (Project Summary), 1814 (Primary HTS)]; assay type: functional
[4] = Luminescence Cell-Based Dose Response HTS to Identify Activators of Luciferase Translation or Activity in H4 […] Cells. [Related pubchem assays: 1829 (Project Summary), 1814 (Primary HTS)]; assay type: functional
[5] = Luminescence Cell-Based Dose Confirmation HTS to Identify Activators of 5'UTR Stem-Loop Driven Alpha-Synuclein mRNA Translation in H4 Neuroglioblastoma Cells. [Related pubchem assays: 1829 (Project Summary), 1814 (Primary HTS)]; assay type: functional
[6] = Luminescence Cell-Based Dose Response to Identify Activators of 5'UTR Stem-Loop Driven Prion Protein mRNA Translation in H4-C Neuroglioblastoma Cells. [Related pubchem assays: 1829 (Project Summary), 1814 (Primary HTS)]; assay type: functional
H4 = assay: Luminescence Cell-Based Dose Response HTS to Identify Activators of 5'UTR Stem-Loop Driven Prion Protein mRNA Translation in H4 Neuroglioblastoma Cells. [Related pubchem assays: 1829 (Project Summary), 1814 (Primary HTS)]; assay type: functional; conditions: Homo sapiens
[7] = Luminescence Cell-Based Dose Confirmation to Identify Activators of 5'UTR Stem-Loop Driven Alpha-Synuclein mRNA Translation in H4 Neuroglioblastoma Cells. [Related pubchem assays: 1829 (Project Summary), 1814 (Primary HTS)]; assay type: functional
[8] = NIH3T3 cell viability loss – ATP luminescence, mouse fibroblasts, counter-screen, dose response (AID 2010); assay type: functional, cell-based;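 note: cells exposed to compound for about 90 hours before reading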
Fatty acid synthase [9] = target: T2, Fatty acid synthase (Homo sapiens, UniProt P49327); assay: inhibition of human FAS-TE enzyme activity – biochemical, endpoint fluorescence intensity, uHTS hits, dose response (AID 624327); assay type: functional;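 note: fluorescence from hydrolysis of an O-methyl fluorescein acyl ester substrate by the enzyme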
Fatty acid synthase [10] = target: T2, Fatty acid synthase; assay: inhibition of human FAS-TE enzyme activity – biochemical, kinetic fluorescence intensity, dose response (AID 624326); assay type: functional;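 note: rate of fluorescence rise from hydrolysis of a fluorogenic O-methyl fluorescein ester substrate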
[11] = Trypanosoma cruzi growth suppression in host cells – NIH3T3 host cells, beta-gal luminescence, confirmation (AID 2044); assay type: functional, cell-based;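 note: intracellular parasites grown in NIH/3T3 mouse fibroblasts as host cells; luminescent beta-galactosidase reporter signal from transgenic T. cruzi replicating inside host cells; inhibitors lower the luminescence signal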
[12] = target: Peroxisome proliferator-activated receptor gamma/Nuclear receptor coactivator 2 (Homo sapiens, UniProt P37231); assay type: functional;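 note: agonist potency for raising coactivator recruitment to the receptor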
Albumin = Albumin (Bos taurus, UniProt P02769); assay: Counterscreen for inhibitors of T-cell receptor (TCR)-CD3 interaction: Fluorescence-based biochemical high throughput dose response assay to identify inhibitors of T-cell receptor (TCR)-CD3 interaction using a TAMRA-labeled BSA probe.; assay type: functional
[13] = target: Peroxisome proliferator-activated receptor gamma/Nuclear receptor coactivator 3 (Homo sapiens, UniProt P37231); assay type: functional;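 note: agonist potency for raising coactivator recruitment to the receptor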
[14] = target: Peroxisome proliferator-activated receptor gamma/Nuclear receptor coactivator 1 (Homo sapiens, UniProt P37231); assay type: functional;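 note: agonist potency as compounds enhance coactivator SRC-1 recruitment to PPARgamma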
INS1 = assay: INS-1E survival protection against cytokine death – cell-based, luminescence, retest, dose response (AID 449756); assay type: functional; conditions: Rattus norvegicus;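 note: cell death triggered by IL-1 beta plus TNF-alpha plus IFN-gamma mixture; protective hits raise ATP signal compared with cytokine alone wells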
[15] = HPDE-C7 pancreatic duct cell viability loss – fluorescence, HTS (AID 430); assay type: functional, cell-based; conditions: Homo sapiens
[16] = viability loss of HPDE-C7K cells – cell-based, fluorescence, HTS, primary screen (AID 431); assay type: functional; conditions: Homo sapiens
[17] = fluconazole-exposed Candida albicans growth modulators – fluorescence, retest, confirmation (AID 2467); assay type: functional, cell-based
[18] = target: T3, DNA repair protein RAD52 homolog (Homo sapiens, UniProt P43351); assay type: functional, biochemical
T3 sequence (P43351 whole entry): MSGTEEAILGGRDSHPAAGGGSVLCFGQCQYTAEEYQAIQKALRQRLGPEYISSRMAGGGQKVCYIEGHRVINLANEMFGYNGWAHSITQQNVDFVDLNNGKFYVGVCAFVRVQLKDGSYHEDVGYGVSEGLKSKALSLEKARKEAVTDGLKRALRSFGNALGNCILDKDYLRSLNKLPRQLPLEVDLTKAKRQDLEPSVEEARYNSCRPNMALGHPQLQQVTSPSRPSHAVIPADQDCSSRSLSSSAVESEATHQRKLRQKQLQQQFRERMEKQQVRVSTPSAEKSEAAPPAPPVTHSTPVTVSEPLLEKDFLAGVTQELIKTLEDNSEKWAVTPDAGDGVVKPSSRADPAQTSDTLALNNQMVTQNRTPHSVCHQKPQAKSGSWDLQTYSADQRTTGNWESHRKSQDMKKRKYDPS

[19] = NIH-3T3 fibroblast cytotoxicity, dose response, cytotoxicity control, cell-based, fluorescence, Alamar Blue, secondary assay (AID 2327); assay type: functional;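 note: NIH-3T3 mouse fibroblasts cultured with fluconazole at 8 µg/mL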
[20] = target: T4, COUP transcription factor 2 (Homo sapiens, UniProt P24468); assay: Luminescence-based cell-based high throughput dose response assay to identify inhibitors of COUP-TFII (NR2F2).; assay type: functional;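 note: HEK293 cells transiently cotransfected with COUP-TFII expression vector and reporter; luciferase reporter luminescence driven by COUP-TFII from the pX2-168 reporter plasmid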
T4 sequence (P24468 whole entry): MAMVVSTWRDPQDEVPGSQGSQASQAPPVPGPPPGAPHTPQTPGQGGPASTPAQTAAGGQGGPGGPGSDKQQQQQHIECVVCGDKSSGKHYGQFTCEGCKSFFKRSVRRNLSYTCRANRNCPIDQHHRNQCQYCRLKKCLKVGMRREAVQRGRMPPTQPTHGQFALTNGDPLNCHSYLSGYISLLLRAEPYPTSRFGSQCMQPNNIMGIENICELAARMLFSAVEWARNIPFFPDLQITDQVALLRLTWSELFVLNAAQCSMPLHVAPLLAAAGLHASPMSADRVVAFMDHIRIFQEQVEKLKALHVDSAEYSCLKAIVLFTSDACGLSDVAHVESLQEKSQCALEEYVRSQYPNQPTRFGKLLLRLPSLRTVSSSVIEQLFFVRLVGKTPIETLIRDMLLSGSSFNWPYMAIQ

[21] = target: T5, RNA-binding protein pos-1 (Caenorhabditis elegans, UniProt G5EF15); assay: disruptors of C. elegans POS-1 RNA interaction – biochemical, fluorescence polarization, dose response (AID 1964);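 note: purified POS-1 fused to maltose binding protein made in E. coli; potency of compounds blocking POS-1 binding to fluorescent RNA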
T5 sequence (G5EF15 whole entry): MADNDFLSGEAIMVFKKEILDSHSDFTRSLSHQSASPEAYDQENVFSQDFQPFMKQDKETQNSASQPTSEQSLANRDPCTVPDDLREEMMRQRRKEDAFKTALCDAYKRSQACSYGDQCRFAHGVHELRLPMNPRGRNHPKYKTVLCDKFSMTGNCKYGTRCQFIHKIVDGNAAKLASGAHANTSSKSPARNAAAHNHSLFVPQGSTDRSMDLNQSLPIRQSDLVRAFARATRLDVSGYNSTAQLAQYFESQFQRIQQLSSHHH

[22] = target: NAD-dependent protein deacylase sirtuin-5, mitochondrial (Homo sapiens, UniProt Q9NXA8); assay: sirtuin-5 deacylation blockers, concentration series – biochemical, fluorescence imaging, cherry-pick, set 5, dose response (AID 720591);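 note: desuccinylation of succinyl peptide AMC substrate read as fluorescence after trypsin release; potency of inhibitors that lower fluorescence and may act on trypsin instead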
[23] = target: T6, Zinc finger protein mex-5 (Caenorhabditis elegans, UniProt Q9XUB2); assay: potency of MEX-5 RNA-binding blockers – biochemical, C. elegans, fluorescence polarization, dose response (AID 1960)
T6 sequence (Q9XUB2 whole entry): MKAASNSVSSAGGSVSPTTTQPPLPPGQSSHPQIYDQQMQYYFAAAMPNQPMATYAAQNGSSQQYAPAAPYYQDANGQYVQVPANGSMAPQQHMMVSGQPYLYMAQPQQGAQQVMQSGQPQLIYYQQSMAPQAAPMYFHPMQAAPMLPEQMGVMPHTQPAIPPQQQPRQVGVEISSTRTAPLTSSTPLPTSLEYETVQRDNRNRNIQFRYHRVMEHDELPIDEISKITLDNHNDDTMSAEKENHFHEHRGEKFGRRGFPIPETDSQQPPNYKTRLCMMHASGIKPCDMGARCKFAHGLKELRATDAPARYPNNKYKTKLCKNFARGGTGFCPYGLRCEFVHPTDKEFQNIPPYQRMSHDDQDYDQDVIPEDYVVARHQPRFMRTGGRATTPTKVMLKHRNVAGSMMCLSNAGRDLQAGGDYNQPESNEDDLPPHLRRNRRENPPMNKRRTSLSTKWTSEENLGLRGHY

Chain of Peroxisome proliferator-activated receptor gamma/Nuclear receptor coactivator 3 (P37231 whole entry): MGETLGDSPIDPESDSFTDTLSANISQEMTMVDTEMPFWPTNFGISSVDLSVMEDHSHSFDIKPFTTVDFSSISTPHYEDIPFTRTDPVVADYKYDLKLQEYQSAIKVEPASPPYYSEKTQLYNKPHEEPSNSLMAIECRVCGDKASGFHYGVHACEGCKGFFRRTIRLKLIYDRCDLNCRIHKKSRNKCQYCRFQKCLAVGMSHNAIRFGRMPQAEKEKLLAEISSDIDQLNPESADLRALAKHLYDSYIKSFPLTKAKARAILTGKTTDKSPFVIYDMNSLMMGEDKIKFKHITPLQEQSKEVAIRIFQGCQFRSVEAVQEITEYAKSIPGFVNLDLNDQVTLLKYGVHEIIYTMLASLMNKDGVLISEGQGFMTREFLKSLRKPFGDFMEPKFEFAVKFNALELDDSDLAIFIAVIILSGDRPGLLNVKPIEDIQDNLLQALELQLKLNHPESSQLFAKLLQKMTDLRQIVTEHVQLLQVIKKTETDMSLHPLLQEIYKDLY
Chain of Peroxisome proliferator-activated receptor gamma/Nuclear receptor coactivator 3 (Q9Y6Q9 whole entry, further chain): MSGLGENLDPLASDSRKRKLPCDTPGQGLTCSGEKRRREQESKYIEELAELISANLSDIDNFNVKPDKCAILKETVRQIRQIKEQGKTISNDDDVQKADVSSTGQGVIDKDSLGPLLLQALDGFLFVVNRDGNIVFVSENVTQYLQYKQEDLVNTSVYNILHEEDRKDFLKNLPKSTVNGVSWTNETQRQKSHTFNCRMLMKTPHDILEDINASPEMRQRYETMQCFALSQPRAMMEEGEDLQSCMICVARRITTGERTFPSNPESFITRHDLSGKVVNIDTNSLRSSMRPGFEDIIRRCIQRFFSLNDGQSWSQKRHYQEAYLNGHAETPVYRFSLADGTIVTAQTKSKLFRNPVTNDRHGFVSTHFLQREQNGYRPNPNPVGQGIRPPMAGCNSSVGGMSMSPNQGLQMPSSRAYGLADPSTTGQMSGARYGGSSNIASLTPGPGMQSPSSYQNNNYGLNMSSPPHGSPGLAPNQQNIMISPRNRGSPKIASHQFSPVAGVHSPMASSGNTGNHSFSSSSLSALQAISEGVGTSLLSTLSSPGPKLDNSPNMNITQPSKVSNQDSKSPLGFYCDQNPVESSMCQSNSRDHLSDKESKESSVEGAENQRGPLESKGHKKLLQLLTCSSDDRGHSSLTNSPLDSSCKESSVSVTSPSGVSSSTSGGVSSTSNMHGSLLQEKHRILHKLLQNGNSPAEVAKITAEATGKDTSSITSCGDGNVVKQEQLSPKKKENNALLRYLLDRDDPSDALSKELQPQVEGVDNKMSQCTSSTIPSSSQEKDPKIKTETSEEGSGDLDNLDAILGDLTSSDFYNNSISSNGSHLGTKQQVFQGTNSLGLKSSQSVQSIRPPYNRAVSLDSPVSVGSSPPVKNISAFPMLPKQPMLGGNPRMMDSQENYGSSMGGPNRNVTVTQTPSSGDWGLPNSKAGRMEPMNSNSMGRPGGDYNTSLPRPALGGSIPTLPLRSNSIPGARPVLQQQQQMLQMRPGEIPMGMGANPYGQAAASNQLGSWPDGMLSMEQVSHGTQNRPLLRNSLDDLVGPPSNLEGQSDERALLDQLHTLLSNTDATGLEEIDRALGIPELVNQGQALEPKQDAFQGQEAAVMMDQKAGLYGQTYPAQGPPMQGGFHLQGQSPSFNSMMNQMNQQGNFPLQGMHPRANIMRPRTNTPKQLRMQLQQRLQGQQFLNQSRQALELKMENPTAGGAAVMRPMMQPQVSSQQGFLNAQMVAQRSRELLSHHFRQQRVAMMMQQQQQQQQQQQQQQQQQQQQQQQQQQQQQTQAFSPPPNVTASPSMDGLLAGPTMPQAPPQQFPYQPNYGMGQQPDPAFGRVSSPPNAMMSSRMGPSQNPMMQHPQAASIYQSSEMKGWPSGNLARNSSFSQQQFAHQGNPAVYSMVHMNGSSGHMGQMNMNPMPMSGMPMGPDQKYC
Chain of Peroxisome proliferator-activated receptor gamma/Nuclear receptor coactivator 2 (P37231 whole entry): as the sequence (P37231 whole entry) above
Chain of Peroxisome proliferator-activated receptor gamma/Nuclear receptor coactivator 2 (Q15596 whole entry, further chain): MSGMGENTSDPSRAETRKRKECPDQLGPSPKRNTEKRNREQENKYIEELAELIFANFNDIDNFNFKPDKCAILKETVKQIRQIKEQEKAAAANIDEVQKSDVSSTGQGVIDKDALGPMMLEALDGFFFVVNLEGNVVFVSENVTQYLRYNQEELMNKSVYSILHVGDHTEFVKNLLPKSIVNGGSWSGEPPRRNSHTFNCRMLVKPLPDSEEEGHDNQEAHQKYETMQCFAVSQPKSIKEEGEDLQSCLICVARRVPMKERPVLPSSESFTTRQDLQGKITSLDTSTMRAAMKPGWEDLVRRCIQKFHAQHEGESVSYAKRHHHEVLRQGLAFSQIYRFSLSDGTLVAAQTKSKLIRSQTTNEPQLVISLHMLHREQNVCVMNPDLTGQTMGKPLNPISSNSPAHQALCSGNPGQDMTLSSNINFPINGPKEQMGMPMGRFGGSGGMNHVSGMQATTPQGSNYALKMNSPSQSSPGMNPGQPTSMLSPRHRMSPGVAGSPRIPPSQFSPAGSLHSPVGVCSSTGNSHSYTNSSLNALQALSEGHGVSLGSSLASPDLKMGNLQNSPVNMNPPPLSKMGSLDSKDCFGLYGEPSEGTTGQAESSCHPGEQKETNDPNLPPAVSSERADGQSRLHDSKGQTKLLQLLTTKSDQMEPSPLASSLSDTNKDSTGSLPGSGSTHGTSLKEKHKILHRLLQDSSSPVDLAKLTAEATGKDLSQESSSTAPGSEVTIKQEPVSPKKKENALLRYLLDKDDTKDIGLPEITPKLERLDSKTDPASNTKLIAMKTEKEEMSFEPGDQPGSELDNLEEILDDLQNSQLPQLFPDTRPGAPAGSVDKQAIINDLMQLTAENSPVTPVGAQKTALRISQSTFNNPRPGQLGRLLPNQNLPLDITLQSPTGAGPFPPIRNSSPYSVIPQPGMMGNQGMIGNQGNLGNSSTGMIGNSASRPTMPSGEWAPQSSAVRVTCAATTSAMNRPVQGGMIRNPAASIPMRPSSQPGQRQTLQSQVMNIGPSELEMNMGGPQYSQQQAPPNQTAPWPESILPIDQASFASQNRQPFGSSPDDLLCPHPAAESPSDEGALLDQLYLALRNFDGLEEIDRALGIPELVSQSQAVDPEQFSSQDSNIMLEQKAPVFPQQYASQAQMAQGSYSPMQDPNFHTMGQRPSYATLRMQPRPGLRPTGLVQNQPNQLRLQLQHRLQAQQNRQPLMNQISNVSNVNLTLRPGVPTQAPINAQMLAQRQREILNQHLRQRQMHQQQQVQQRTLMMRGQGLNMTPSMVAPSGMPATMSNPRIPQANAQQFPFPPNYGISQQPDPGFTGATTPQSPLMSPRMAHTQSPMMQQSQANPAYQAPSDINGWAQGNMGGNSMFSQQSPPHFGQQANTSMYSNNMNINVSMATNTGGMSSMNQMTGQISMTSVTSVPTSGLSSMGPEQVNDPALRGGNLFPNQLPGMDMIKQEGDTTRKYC
Chain of Albumin (P02769 whole entry): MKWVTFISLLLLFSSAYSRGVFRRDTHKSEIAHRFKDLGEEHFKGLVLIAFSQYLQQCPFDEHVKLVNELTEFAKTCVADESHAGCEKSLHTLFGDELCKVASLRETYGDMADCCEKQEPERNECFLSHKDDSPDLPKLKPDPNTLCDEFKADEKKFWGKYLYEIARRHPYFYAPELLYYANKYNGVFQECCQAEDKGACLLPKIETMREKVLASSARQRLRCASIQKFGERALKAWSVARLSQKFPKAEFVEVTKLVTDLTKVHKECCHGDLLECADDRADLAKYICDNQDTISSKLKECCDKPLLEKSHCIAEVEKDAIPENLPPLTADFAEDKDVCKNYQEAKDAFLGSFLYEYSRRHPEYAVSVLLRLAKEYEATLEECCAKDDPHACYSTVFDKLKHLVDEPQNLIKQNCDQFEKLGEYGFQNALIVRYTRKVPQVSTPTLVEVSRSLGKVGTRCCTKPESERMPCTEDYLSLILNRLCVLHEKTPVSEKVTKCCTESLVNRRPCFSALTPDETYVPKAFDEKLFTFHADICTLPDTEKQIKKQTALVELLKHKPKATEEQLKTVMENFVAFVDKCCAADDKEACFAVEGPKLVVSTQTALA
Chain of NAD-dependent protein deacylase sirtuin-5, mitochondrial (Q9NXA8 whole entry): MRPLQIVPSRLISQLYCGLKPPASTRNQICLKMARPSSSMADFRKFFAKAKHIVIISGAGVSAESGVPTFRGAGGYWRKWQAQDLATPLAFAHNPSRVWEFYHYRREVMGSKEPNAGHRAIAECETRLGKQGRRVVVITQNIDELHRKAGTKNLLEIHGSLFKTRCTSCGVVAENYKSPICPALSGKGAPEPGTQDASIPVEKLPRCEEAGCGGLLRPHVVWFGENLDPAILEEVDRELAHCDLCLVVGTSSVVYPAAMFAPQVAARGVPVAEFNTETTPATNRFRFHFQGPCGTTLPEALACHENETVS

SMILES: COc1ccc(C(=O)Cc2ccccc2)cc1OC
- EC50 [1]: > 55.7 µM (not active)
- EC50 [2]: > 55.7 µM (not active)

SMILES: COc1cccc(N(C(=O)c2nc3nccc(C)n3n2)c2nc3ccccc3s2)c1
- AC50 (HeLa): 43.5 µM (active)
- EC50 [3]: 0.338 µM (active)
- EC50 [4]: 0.192 µM (active)
- EC50 [5]: 0.122 µM (active)
- EC50 [6]: 0.248 µM (active)
- EC50 (H4): 0.166 µM (active)
- EC50 [7]: 0.464 µM (active)

SMILES: O=C(NCCCCc1ccccc1)c1cc([N+](=O)[O-])cc([N+](=O)[O-])c1
- EC50 [8]: > 60 µM (not active)
- EC50 (cells): 0.258 µM (active)
- IC50 (Fatty acid synthase [9]): 12.4 µM (active)
- IC50 (Fatty acid synthase [10]): 8 µM (active)
- EC50 [11]: < 0.1 µM (active)

SMILES: CN(C)S(=O)(=O)c1cccc(NC(=O)COC(=O)c2cc(-c3cccc(Br)c3)nc3ccccc23)c1
- EC50 [12]: 18.1 µM (not active)
- IC50 (Albumin): > 94.1 µM (inactive)
- EC50 [13]: 21.1 µM (not active)
- EC50 [14]: 19.1 µM (not active)

SMILES: Cn1nc([N+](=O)[O-])nc1Sc1cccc2cccnc12
- AC50 (INS1): 2.59 µM (active)
- EC50 [8]: > 60 µM (not active)
- EC50 (cells): 0.115 µM (active)
- EC50 [11]: < 0.1 µM (active)

SMILES: COc1ccc2c(COC(=O)c3[nH]nc4ccccc34)cc(=O)oc2c1
- EC50 [3]: 0.684 µM (active)
- EC50 [4]: < 0.1 µM (inconclusive)
- EC50 [6]: 0.752 µM (active)
- EC50 (H4): 0.409 µM (active)
- EC50 [7]: 0.352 µM (active)

SMILES: Cc1nnc(SCC(=O)NC2CCCC2)s1
- EC50 [1]: > 55.7 µM (not active)
- EC50 [2]: > 55.7 µM (not active)

SMILES: Cc1ccc(OCc2nnc(SCC(=O)c3ccccc3)n2Cc2ccco2)cc1
- EC50 [15]: > 20 µM (not active)
- EC50 [16]: > 20 µM (not active)

SMILES: CC1=CC(=Cc2sc3ccccc3[n+]2C)C=C(C)O1.[O-][Cl+3]([O-])([O-])[O-]
- EC50 [8]: 32.3 µM (active)
- EC50 (cells): 0.009 µM (active)
- EC50 [17]: 0.491 µM (active)
- EC50 [11]: < 0.1 µM (active)
- AC50 [18]: 5.78 µM (active)
- EC50 [19]: > 160 µM (inactive)
- IC50 [20]: 8.76 µM (active)

SMILES: COc1ccccc1C(=O)C1CCCN(C(=O)CSc2ccccn2)C1 (stereo unspecified)
- EC50 [12]: > 79.4 µM (not active)
- EC50 [13]: > 79.4 µM (not active)
- EC50 [14]: > 79.4 µM (not active)

SMILES: O=C(O)c1cc(O)c2c(c1)C(=O)c1cccc(O)c1C2=O [RHEIN]
- EC50 [15]: 19.8 µM (active)
- EC50 [21]: 29.2 µM (active)
- AC50 [22]: > 30 µM (inactive)
- EC50 [23]: 21.6 µM (active)
- EC50 [16]: 5.19 µM (active)
